US20100016328A1, “PTERIN ANALOGS” (BioMarin Pharmaceutical, Inc., priority 2007, published 2010)
Structures can show the parent of a compound that is named as a salt. Where two headings read alike, the source gives them in different places.

Key:
[1] = system: human umbilical vein endothelial cells (HUVEC); experiment: Nitric oxide production (nitrite+nitrate, Griess reaction) in NAS-pretreated HUVEC; type: cell-based; settings: HUVEC pretreated with 3 mM NAS; for NO production (nitrite+nitrate): 50, 100, or 200 mM compound, 5-22 hours
Description: Cultured human umbilical vein endothelial cells (HUVEC) were pretreated with 3 mM N-acetylserotonin (NAS), an inhibitor of the enzyme sepiapterin reductase. Inhibition of this pathway typically results in loss of endogenous BH4, depressing the endogenous eNOS activity far below normal and provides an assay to test for restoration of eNOS activity.
Thus, subconfluent HUVECs were seeded in a 24-well plate and grown overnight in EGM2 medium (full growth medium). The next morning, fresh medium was added to the cells (300 μL/well), 3 mM NAS was added to the cells to decrease the endogenous BH4 levels. After an incubation of 1.5 hours, 50, 100, or 200 mM BH4 or compound of Example 5, Example 6, Example 7, or Example 9 were added to the cells. The cells were allowed to react with the BH4 or the compound of Example 5, Example 7, or Example 9 for 5-22 hours. The production of NO was then measured as changes in total (nitrite+nitrate) by the Griess reaction subsequent to nitrate reductase treatment. The percentage of nitrite+nitrate with BH4 or compound of Example 5, Example 7, or Example 9 is shown in FIG. 7 (after 5 hours); FIG. 8 (after 17 hours); and FIG. 9 (after 22 hours). The results for Example 6 are shown in FIG. 10 (after 5 hours) and FIG. 11 (after 20 hours).

[2] = Pharmacokinetics of BH4 and BH4 analogs given by oral gavage to monkeys; type: in vivo; settings: fasted cynomolgus monkeys; for AUC0-t / Cmax: equivalent of 80 mg of BH4, n=3, plasma over 25 hours, standard deviation in parenthesis; for Tmax: equivalent of 80 mg of BH4, n=3, standard deviation in parenthesis
Description: Fasted cynomolgus monkeys were given BH4 and BH4 analogs by oral gavage (n=3), such that the amount of the analog administered was the equivalent of 80 mg of BH4. The plasma concentrations of the BH4, when administered directly, or the analogs was measured at various time points over a 25 hour period. The PK data is also shown in the following table, wherein the number in parenthesis is the standard deviation.

[3] = Stability in simulated gastric fluid; type: in vitro ADME; settings: concentration of compound remaining over a 60 minute period; FIG. 5
Description: (§1) The stability of various compounds as disclosed herein were tested in human and rat and in simulated gastric fluid. Each compound was tested over an hour period for concentration of the compound remaining at each time point. The results are shown in FIGS. 3 (human plasma stability), 4 (rat plasma stability), and 5 (simulated gastric fluid stability) for the compounds of Example 2, 3, 4, and 20.

Stability in rat plasma = type: in vitro ADME; settings: concentration of compound remaining over a 60 minute period; FIG. 4
Description: as §1

[4] = Stability in human plasma; type: in vitro ADME; settings: concentration of compound remaining over a 60 minute period; FIG. 3
Description: as §1

[5] = set-up: species or system male Sprague Dawley rats; settings: male, Sprague Dawley, rat, in vivo, po
Description: This example allows for comparison of the pharmacokinetics of the analog (Compound I) versus that of BH4 following single oral administration in rats.
With respect to the administered BH4, the maximum total biopterin concentrations in plasma 2 hrs and 1 hr post-dosing were 108 ng/ml (i.e., about 3 fold the endogenous level) and 1227 ng/ml (i.e., about 30 fold the endogenous level), respectively. […] The ratio of reduced biopterin to total biopterins in plasma (i.e., the reduced-form ratio) was relatively static (73%-96%).

[6] = cynomolgus monkey, plasma, read-out: Tmax

Row | SMILES | AUC0-t [2] | Cmax [2] | Tmax [2] | also measured
1 | CCC(C)[C@H](N)C(=O)O[C@@H](C)[C@H](O)[C@H]1CNc2nc(N)[nH]c(=O)c2N1 (stereo in doubt) [Example 6, 2-Amino-3-methyl-pentanoic acid 2-(2-amino-4-oxo-3,4,5,6,7,8-hexahydro-pteridin-6-yl)-2-hydroxy-1-methyl-ethyl ester] |  |  |  | effect on NAS-treated cells compared with Example 5 [1]: similar, if slightly reduced, effect; NO production (nitrite+nitrate) [1]: increased NO production in a dose-dependent manner
2 | C[C@H](O)[C@H](O)[C@H]1CNc2nc(N)[nH]c(=O)c2N1C(=O)OCc1ccccc1 (stereo in doubt) [Example 20, 2-Amino-6-(1,2-dihydroxy-propyl)-4-oxo-4,6,7,8-tetrahydro-1H-pteridine-5-carboxylic acid benzyl ester] |  |  |  | stability in simulated gastric fluid [3]: high level of stability; stability in rat plasma (Stability in rat plasma): high level of stability; stability in human plasma [4]: high level of stability
3 | C[C@H](O)[C@H](O)[C@H]1CNc2nc(N)[nH]c(=O)c2N1 [BH4, Tetrahydrobiopterin] | 288 (15.5) ng hr/mL | 42.0 (12.6) ng/mL | 3.0 (0)^ hr | ratio of reduced biopterin to total biopterins in plasma (reduced-form ratio) [5]: 73-96%; maximum total biopterin concentration relative to the endogenous level ([5]; 10 mg/kg): about 3 fold; time of maximum total biopterin concentration post-dosing ([5]; 10 mg/kg): 2 h; time of return to the endogenous level post-dosing ([5]; 10 mg/kg): 9 h; maximum total biopterin concentration relative to the endogenous level ([5]; 100 mg/kg): about 30 fold; time of maximum total biopterin concentration post-dosing ([5]; 100 mg/kg): 1 h; time of return to the endogenous level post-dosing ([5]; 100 mg/kg): 24 h
4 | CC(=O)O[C@@H]([C@H](C)OC(C)=O)[C@H]1CNc2nc(N)[nH]c(=O)c2N1C(C)=O [Example 2, Acetic acid 2-acetoxy-1-(5-acetyl-2-amino-4-oxo-3,4,5,6,7,8-hexahydro-pteridin-6-yl)-propyl ester] |  |  |  | stability in simulated gastric fluid [3]: high level of stability; stability in rat plasma (Stability in rat plasma): high level of stability; stability in human plasma [4]: high level of stability
5 | CCC(=O)O[C@@H]([C@H](C)OC(=O)CC)[C@H]1CNc2nc(N)[nH]c(=O)c2N1C(=O)CC [Example 3, Propionic acid 1-(2-amino-4-oxo-5-propionyl-3,4,5,6,7,8-hexahydro-pteridin-6-yl)-2-propionyloxy-propyl ester] |  |  |  | stability in simulated gastric fluid [3]: high level of stability; stability in rat plasma (Stability in rat plasma): high level of stability; stability in human plasma [4]: high level of stability
6 | CCCC(=O)O[C@@H]([C@H](C)OC(=O)CCC)[C@H]1CNc2nc(N)[nH]c(=O)c2N1C(=O)CCC [Example 4, Butyric acid 1-(2-amino-5-butyryl-4-oxo-3,4,5,6,7,8-hexahydro-pteridin-6-yl)-2-butyryloxy-propyl ester] |  |  |  | stability in simulated gastric fluid [3]: high level of stability; stability in rat plasma (Stability in rat plasma): high level of stability; stability in human plasma [4]: high level of stability
7 | C[C@H](OC(=O)[C@@H](N)CCCCN)[C@H](O)[C@H]1CNc2nc(N)[nH]c(=O)c2N1 [Example 7, 2,6-Diamino-hexanoic acid 2-(2-amino-4-oxo-3,4,5,6,7,8-hexahydro-pteridin-6-yl)-2-hydroxy-1-methyl-ethyl ester tri-hydrochloride] | 572 (148) ng hr/mL | 82.3 (27.2) ng/mL |  | Tmax [2, 6]: 2.67 h; effect on NAS-treated cells compared with Example 5 [1]: similar, if slightly reduced, effect; NO production (nitrite+nitrate) [1]: increased NO production in a dose-dependent manner
8 | C[C@H](OC(=O)[C@@H]1CCCN1)[C@H](O)[C@H]1CNc2nc(N)[nH]c(=O)c2N1 [Example 9, Pyrrolidine-2-carboxylic acid 2-(2-amino-4-oxo-3,4,5,6,7,8-hexahydro-pteridin-6-yl)-2-hydroxy-1-methyl-ethyl ester dihydrochloride] | 384 (214) ng hr/mL | 61.9 (34.8) ng/mL | 2.0 (0)^ hr | effect on NAS-treated cells compared with Example 5 [1]: similar, if slightly reduced, effect; NO production (nitrite+nitrate) [1]: increased NO production in a dose-dependent manner
9 | CC(C)[C@H](N)C(=O)O[C@@H]([C@H](C)OC(=O)[C@@H](N)C(C)C)[C@H]1CNc2nc(N)[nH]c(=O)c2N1 [Example 10, 2-Amino-3-methyl-butyric acid 2-(2-amino-3-methyl-butyryloxy)-1-(2-amino-4-oxo-3,4,5,6,7,8-hexahydro-pteridin-6-yl)-propyl ester trihydrochloride] | 625 (294) ng hr/mL | 138 (123) ng/mL |  | Tmax [2, 6]: 1.83 h

Now from value to compound, other results behind:

Row | AUC0-t [2] | Cmax [2] | Tmax [2] | SMILES | also measured
10 | 13.7 ng·h/mL | 2.2 ng/mL | 6.0 h | CC(C)[C@H](N)C(=O)N1c2c(nc(N)[nH]c2=O)NC[C@@H]1[C@@H](O)[C@H](C)O (stereo in doubt) [Example 13, 2-Amino-5-(2-amino-3-methyl-butyryl)-6-(1,2-dihydroxy-propyl)-5,6,7,8-tetrahydro-1H-pteridin-4-one hydrochloride] | 
11 | 63.2 (25.6) ng hr/mL | 5.23 (2.1) ng/mL | 12.1 (11.9) hr | CC[C@H](C)[C@H](N)C(=O)N1c2c(nc(N)[nH]c2=O)NC[C@@H]1[C@@H](O)[C@H](C)O (stereo in doubt) [Example 14, 2-Amino-5-(2-amino-3-methyl-pentanoyl)-6-(1,2-dihydroxy-propyl)-5,6,7,8-tetrahydro-1H-pteridin-4-one hydrochloride] | 
12 | 36.8 (37.6) ng hr/mL | 5.7 (1.7) ng/mL | 12.0 (10.4) hr | C[C@H](O)[C@H](O)[C@H]1CNc2nc(N)[nH]c(=O)c2N1C(=O)[C@@H](N)CCCCN (stereo in doubt) [Example 15, 2-Amino-5-(2,6-diamino-hexanoyl)-6-(1,2-dihydroxy-propyl)-5,6,7,8-tetrahydro-1H-pteridin-4-one dihydrochloride] | 
13 | 88.1 (31.5) ng hr/mL | 7.63 (2.7) ng/mL | 6.0 (0)^ hr | C[C@H](O)[C@H](O)[C@H]1CNc2nc(N)[nH]c(=O)c2N1C(=O)[C@@H]1CCCN1 (stereo in doubt) [Example 16, 2-Amino-6-(1,2-dihydroxy-propyl)-5-(pyrrolidine-2-carbonyl)-5,6,7,8-tetrahydro-1H-pteridin-4-one dihydrochloride] | 
14 | 617 (336) ng hr/mL | 115 (65.4) ng/mL | 1.5 (0.09) hr | C[C@H](OC(=O)[C@@H](N)CCCCN)[C@H](OC(=O)[C@@H](N)CCCCN)[C@H]1CNc2nc(N)[nH]c(=O)c2N1 [Example 11, 2,6-Diamino-hexanoic acid 2-(2-amino-4-oxo-3,4,5,6,7,8-hexahydro-pteridin-6-yl)-2-(2,6-diamino-hexanoyloxy)-1-methyl-ethyl ester pentahydrochloride] | 
15 | 438 (211) ng hr/mL | 73.6 (42.9) ng/mL | 3.0 (1.0) hr | C[C@H](OC(=O)[C@@H]1CCCN1)[C@H](OC(=O)[C@@H]1CCCN1)[C@H]1CNc2nc(N)[nH]c(=O)c2N1 [Example 12, Pyrrolidine-2-carboxylic acid 1-(2-amino-4-oxo-3,4,5,6,7,8-hexahydro-pteridin-6-yl)-2-(pyrrolidine-2-carbonyloxy)-propyl ester trihydrochloride] | 
